Results taken from patent EP1464336A1, “Use of tryprostatin A for the reversal of cancer drug resistance” (Humboldt-Universität zu Berlin, priority 2003, dated 2004).
“Also recorded” adds a separate entry of the source.

Columns and labels:
[1] = system: MDR1 Pgp overexpressing subline (EPG85-257RDB); test: C6-NBD-PS outward translocation assay; format: cell-based, human; settings: 10 µM inhibitor; 30 minutes at 37°C (Fig. 8)
Protocol: (§1) To measure redistribution of C6-NBD-PS from the cytoplasmic to the exoplasmic leaflet, labelling of the cytoplasmic leaflet is preconditional. Previously, we have introduced a method to achieve efficient labeling of the plasma membrane inner leaflet of the gastric carcinoma cell line EPG85-257 (Pohl, A., Lage, H., Müller, P., Pomorksi, T., and Herrmann. A. (2002) Biochem. J. 365, 259-268). Briefly, cells were preincubated with or without MDR inhibitors, labelled with 5 µM C6-NBD-PS, and incubated at 20°C for 30 minutes to allow inward movement of the NBD analogue. C6-NBD-PS remaining on the cell surface was extracted twice by incubation with 2% (w/v) BSA in mPBS for 10 minutes on ice. Before starting the outward translocation assay, the medium was removed, and cells were washed with ice-cold mPBS. For t=0', ice-cold medium containing 2% (w/v) BSA and 5 mM DFP ( = diisopropyl fluoro-phosphate) in mPBS with or without inhibitor was immediately added to the cell dish for 10 minutes. To measure C6-NBD-PS outward translocation, medium prewarmed to 37°C was added to the dish, and cells were incubated at 37°C for 30 minutes (t = 30'). Removal of the BSA-containing media and a second extraction with 2% BSA in mPBS for 10 minutes terminated incubations, followed by lipid analysis.
(§2) After the incubations, the second BSA back exchange medium was pooled with the first, and cells scraped into mPBS. For analysis of outward translocation and of metabolic conversion of C6-NBD-PS, lipids from both scraped cells and media were extracted with isopropanol/chloroform/(5.5:1, v/v) to prevent substantial loss into the aqueous phase. Samples were centrifuged at 780 g for 5 minutes, the supernatant transferred into new glass tubes and dried, dissolved in chloroform/methanol (1:1) and quantified spectroscopically. For C6-NBD-PC analysis, lipids from both cells and incubation media were extracted by the method of Bligh and Dyer (Bligh, E., and Dyer, W. (1959) Can. J Biochem. Physiol. 37, 911-917) using 20 mM acetic acid in the aqueous phase. After 2-D separation [I, chloroform/methanol/25% ammonium hydroxide (65:25:4, v/v); II, chloroform/acetone/methanol/acetic acid/water (10:4:2:2:1, v/v)] on thin layer chromatography plates, fluorescent lipid spots were visualized under ultraviolet light, scraped, and quantified as described before (Pomorski, T., Müller, P., Zimmermann, B., Burger, K., Devaux, P., and Herrmann, A. (1996) J. Cell Sci. 109, 687-698).

[2] = system: control cells (EPG85-257P); test: C6-NBD-PS outward translocation assay; format: cell-based, human; settings: 10 µM inhibitor; 30 minutes at 37°C (Fig. 8)
Protocol: as §1, §2

[3] = system: BCRP overexpressing cells (EPG85-257RNOV); test: Annexin assay: FITC-Annexin V binding, exposure of endogenous PS (flow cytometry); format: cell-based, human; settings: preincubation with 5 µM Tryprostatin A for 30 min at 37°C (Fig. 9, 10)
Protocol: (§3) To measure exposure of endogenous PS on the cell surface, cells were incubated on ice for 10 minutes in the dark with 9 nM FITC-Annexin V in binding buffer. Two minutes prior to the end of the incubation, propidium iodide (final 1.9 µM) was added. Cells were then washed three times, detached from the dishes through pipetting, and suspended in binding buffer. Measurement was performed with a FACSCalibur flow cytometer (Becton Dickinson, St. Louis, MO) 5 minutes after the end of incubation. Regions were set to exclude subcellular particles, and only single cells were counted (10 000 cells / sample). A further gate excluded damaged cells with elevated propidium iodide staining. Data were analyzed by Becton Dickinson CellQuest software.

[4] = system: control cells (EPG85-257P); test: as above; format: cell-based, human; settings: treatment with Tryprostatin A (data not shown)
Protocol: as §3

[5] = system: parental, drug-sensitive gastric carcinoma cell variant EPG85-257P; test: Mitoxantrone accumulation assay (flow cytometry); format: cell-based, human; settings: TPS-A (Fig 4A)
Protocol: (§4) Cellular mitoxantrone accumulation was determined according to the procedure described in Lage H et al., FEBS Lett 2001;503:179-84. Briefly, 4 x 10^5 cells were seeded out in 6-well plates 78 hours prior to the experiment. Incubation with mitoxantrone (0, 1,5 and 10 µg/ml) was performed for 60 minutes at 37°C and 70-80 % cellular confluence. For kinetics of intracellular enrichment of mitoxantrone, cells were exposed to 10 µg/ml mitoxantrone for 0, 5, 10 and 60 min. Cells were washed with ice-cold PBS, trypsinized and resuspended in 4 °C PBS at a concentration of 4 x 10^5 cells/ml. Intracellular fluorescence of mitoxantrone was determined by flow cytometry (Becton-Dickinson, San Jose, CA). The cells were excited at 480 nm and emission was measured at 630 nm. A minimum of 10^4 cells was analyzed for each sample. All assays were performed at least in three independent experiments, each time with triplicate wells.
(§5) To provide confirmation that the observed resensitization to mitoxantrone of BCRP-overexpressing cells was indeed the result of BCRP inhibition by TPS-A, a mitoxantrone accumulation assay was performed. The known so-called "multispecific" MDR modulator GF120918, inhibiting P-gp- and BCRP activity, was used as a positive control for P-gp- and BCRP antagonism.

[6] = system: BCRP-transfected cell variant MCF-7/BCRP clone 8; test: Mitoxantrone accumulation assay (flow cytometry); format: cell-based, human; settings: 50 µM TPS-A; compared to drug accumulation level in the untreated, parental control cell line (Fig 4B)
Protocol: as §4, §5

[7] = system: BCRP-positive, atypical MDR gastric carcinoma cell line EPG85-257RNOV; test: Mitoxantrone accumulation assay (flow cytometry); format: cell-based, human; settings: 10 µM TPS-A; mitoxantrone 60 min at 37 °C (Fig 4A)
Protocol: as §4, §5

[8] = system: drug-sensitive, parental cell line MCF-7; test: Mitoxantrone accumulation assay (flow cytometry); format: cell-based, human; settings: increasing modulator concentrations
Protocol: as §4, §5

MCF-7/AdrVp = test: Mitoxantrone accumulation assay (flow cytometry); format: cell-based, human; settings: 50 µM TPS-A
Protocol: as §4, §5

[9] = system: P-gp-expressing, classical MDR variant EPG85-257RDB; test: Mitoxantrone accumulation assay (flow cytometry); format: cell-based, human; settings: TPS-A (Fig 4A)
Protocol: as §4, §5

[10] = system: microtubule-associated protein (MAP)-dependent microtubule assembly; settings: literature (Usui T et al., Biochem J 1998); cited from earlier work

In the case of `COc1ccc2c(C[C@@H]3NC(=O)[C@@H]4CCCN4C3=O)c(CC=C(C)C)[nH]c2c1` [TPS-A, tryprostatin A], the “PS analogue outward translocation (MDR1 Pgp lipid transport activity)” value [1] is reported as “did not affect”, the “PS transport (C6-NBD-PS outward translocation)” value [2] is reported as “did not affect PS transport significantly” and the “level of Annexin V binding” value [3] is reported as “reduced the level of Annexin V binding to that of control cells; also recorded: reduced to the level found for control cells”. The “Annexin V binding” value [4] was “not affected”, the mitoxantrone accumulation [5] was “slightly increased mitoxantrone accumulation” and the “inhibition of the mitoxantrone pump activity” value [6] was “completely”. For the same compound, the “increase to % of the mitoxantrone accumulation level of untreated drug-sensitive cells” value [7] was 40%, the “effect on drug accumulation” value [8] was “only a weak dosage-depending effect” and the “increase of drug accumulation with respect to control cells” value (MCF-7/AdrVp) was 45%. For the same compound, the “drug transporter inhibiting effect (mitoxantrone accumulation)” value [9] was “No significant drug transporter inhibiting effect” and the “final concentration inhibiting MAP-dependent microtubule assembly / cell cycle progression at the M phase” value [10] was 250 µM.
